Test results from patent US20180186742A1, “PICOLINAMIDES AS FUNGICIDES” (Dow AgroSciences LLC, priority 2017, published 2018).
Where two headings read alike, the source gives them in different places.

Experiments:
Format in all cases: in vivo
[1] = tested on: Alternaria solani; assay: Tomato early blight (ALTESO), disease control on tomato plants; settings: 1DP test at 100 ppm, read-out: ALTESO disease control rating
Method: Technical grades of materials were dissolved in acetone, which were then mixed with nine volumes of water containing 110 ppm Triton X-100. The fungicide solutions were applied onto wheat seedlings using an automated booth sprayer to run-off. All sprayed plants were allowed to air dry prior to further handling. All fungicides were evaluated using the aforementioned method for their activity vs. all target diseases, unless stated otherwise. Wheat leaf blotch and brown rust activity were also evaluated using track spray applications, in which case the fungicides were formulated as EC formulations, containing 0.1% Trycol 5941 in the spray solutions. Tomato plants (variety Outdoor Girl) were propagated in soil-less Metro mix, with each pot having one plant, and used when 12 to 14 days old. Test plants were inoculated with an aqueous spore suspension of Alternaria solani 24 hr after fungicide treatments. After inoculation the plants were kept in 100% relative humidity (one day in a dark dew chamber followed by two to three days in a lighted dew chamber at 20° C.) to permit spores to germinate and infect the leaf. The plants were then transferred to a growth room at 22° C. for disease to develop. Fungicide formulation, application and disease assessment on the sprayed leaves followed the procedures as described in the Example A.

[2] = tested on: Pseudoperonospora cubensis; assay: Cucumber downy mildew (PSPECU), disease control on cucumber seedlings; settings: 24 h, 1DP (1 Day Protectant) test at 100 ppm
Method: Technical grades of materials were dissolved in acetone, which were then mixed with nine volumes of water containing 110 ppm Triton X-100. The fungicide solutions were applied onto wheat seedlings using an automated booth sprayer to run-off. All sprayed plants were allowed to air dry prior to further handling. All fungicides were evaluated using the aforementioned method for their activity vs. all target diseases, unless stated otherwise. Wheat leaf blotch and brown rust activity were also evaluated using track spray applications, in which case the fungicides were formulated as EC formulations, containing 0.1% Trycol 5941 in the spray solutions. Cucumber seedlings (variety Bush Pickle) were grown in soil-less Metro mix, with one plant per pot, and used in the test when 12 to 14 days old. Plants were inoculated with a spore suspension 24 hr following fungicide treatments. Test plants were inoculated with an aqueous spore suspension of Pseudoperonospora cubensis 24 hr after fungicide treatments. After inoculation the plants were kept in a dew room at 22° C. with 100% relative humidity for 24 hr to permit spores to germinate and infect the leaf. The plants were then transferred to a greenhouse set at 20° C. until disease was fully expressed. Fungicide formulation, application and disease assessment on the sprayed leaves followed the procedures as described in the Example A.

[3] = tested on: Zymoseptoria tritici; assay: Leaf blotch of wheat (SEPTTR), disease control on wheat seedlings; settings: low volume application at 121.5 g/H, wheat leaf blotch
Method in brief: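 Yuma wheat seedlings with the first leaf fully emerged were sprayed to run-off with compound in acetone plus nine volumes of water containing 110 ppm Triton X-100; track-spray tests used EC formulations with 0.1% Trycol 5941. Z. tritici inoculation came before or after treatment, followed by 100% RH dew periods and a 20 °C greenhouse. Percent control was calculated from severity versus untreated plants.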

[4] = tested on: Glomerella lagenarium; Anamorph: Colletotrichum lagenarium; assay: Cucumber anthracnose (COLLLA), disease control on cucumber seedlings; settings: Colletotrichum orbiculare, 1DP test at 100 ppm, read-out: COLLLA disease control rating
Method: Technical grades of materials were dissolved in acetone, which were then mixed with nine volumes of water containing 110 ppm Triton X-100. The fungicide solutions were applied onto wheat seedlings using an automated booth sprayer to run-off. All sprayed plants were allowed to air dry prior to further handling. All fungicides were evaluated using the aforementioned method for their activity vs. all target diseases, unless stated otherwise. Wheat leaf blotch and brown rust activity were also evaluated using track spray applications, in which case the fungicides were formulated as EC formulations, containing 0.1% Trycol 5941 in the spray solutions. Cucumber seedlings (variety Bush Pickle) were propagated in soil-less Metro mix, with each pot having one plant, and used in the test when 12 to 14 days old. Test plants were inoculated with an aqueous spore suspension of Colletotrichum lagenarium 24 hr after fungicide treatments. After inoculation the plants were kept in a dew room at 22° C. with 100% relative humidity for 48 hr to permit spores to germinate and infect the leaf. The plants were then transferred to a growth room set at 22° C. for disease to develop. Fungicide formulation, application and disease assessment on the sprayed leaves followed the procedures as described in the Example A.

[5] = tested on: Magnaporthe grisea; Anamorph: Pyricularia oryzae; assay: whole plant or invertebrate; settings: 24 h, read-out: PYRIOR Disease Control
[6] = tested on: Uncinula necator; assay: Grape powdery mildew (UNCINE), disease control on grape seedlings; settings: Erysiphe necator, 24 h, 1DP (1 Day Protectant) test at 100 ppm
Method: Technical grades of materials were dissolved in acetone, which were then mixed with nine volumes of water containing 110 ppm Triton X-100. The fungicide solutions were applied onto wheat seedlings using an automated booth sprayer to run-off. All sprayed plants were allowed to air dry prior to further handling. All fungicides were evaluated using the aforementioned method for their activity vs. all target diseases, unless stated otherwise. Wheat leaf blotch and brown rust activity were also evaluated using track spray applications, in which case the fungicides were formulated as EC formulations, containing 0.1% Trycol 5941 in the spray solutions. Grape seedlings (variety Carignane) were grown in soil-less Metro mix, with one plant per pot, and used in the test when approximately 1 month old. Plants were inoculated 24 hr after fungicide treatment by shaking spores from infected leaves over test plants. Plants were maintained in a greenhouse set at 20° C. until disease was fully developed. Fungicide formulation, application and disease assessment on sprayed leaves followed the procedures as described in the Example A.

[7] = 24 h, 1 Day Protectant, read-out: SEPTTR 1DP disease control, LV activity
[8] = 72 h, 3 Day Curative, read-out: SEPTTR 3DC disease control, LV activity

SMILES | pest or weed control at 100 ppm [1] [%] | pest or weed control at 100 ppm [2] [%] | pest or weed control at 121.5 g/ha [3, 7] [%] | pest or weed control at 121.5 g/ha [3, 8] [%] | pest or weed control at 100 ppm [4] [%] | pest or weed control at 100 ppm [5] [%] | pest or weed control at 100 ppm [6] [%]
COc1ccnc(C(=O)N[C@@H](C)C(=O)O[C@@H](C)[C@H](c2ccc(F)cc2C)C(C)C)c1OC(=O)OC(C)C [Compound 373] | < 80 | < 80 | > 80 | > 80 | > 80 | < 80 | > 80
COc1ccnc(C(=O)N[C@@H](C)C(=O)O[C@@H](C)[C@H](c2ccc(F)cc2C)C(C)C)c1OC(=O)C(C)(C)C [Compound 374] | < 80 | < 80 | > 80 | > 80 | < 80 | < 80 | > 80
COc1ccnc(C(=O)N[C@@H](C)C(=O)O[C@@H](C)[C@H](c2ccccc2C)C(C)C)c1OC(=O)C(C)C [Compound 375] | < 80 | < 80 | < 80 | > 80 | > 80 | > 80 | > 80
